Data taken from paper PMC7291367, “Insightful Backbone Modifications Preventing Proteolytic Degradation of Neurotensin Analogs Improve NTS1-Induced Protective Hypothermia” (Frontiers in Chemistry, 2020).
“Also recorded” adds a separate entry of the source. Read-outs that look alike come from different tables or passages of the source. Numbered stars: 1 amine (or outer) side, 2 acyl side, 3 side chain; on linkers, the order of the positions; unused ones are H or OH. Square brackets hold non-standard residues; d marks the D form. Peptide text beside a SMILES is read from it. X1 = NCCCC[C@H](N)CN([C@@H](CCCCN)C(=O)[*:2])[*:1]; Ala(SiMe3) = C[Si](C)(C)C[C@H](N)C(=O)O; X2 = C[Si]1(C)CC(C(=O)[*:2])N([*:1])C1; Dmt = Cc1cc(O)cc(C)c1C[C@H](N)C(=O)O; Tle = CC(C)(C)[C@H](N)C(=O)O

Assays:
[1] = biological target: T1, hNTS2 (Homo sapiens, UniProt O95665); experiment: Competitive radioligand binding assay, 125I-[Tyr3]-NT displacement, 1321N1 cell membranes; conditions: for NTS1/NTS2 selectivity: ratio of Ki hNTS1 to Ki hNTS2; for fold decrease in NTS2 binding affinity: compared to NT(8-13)
T1 sequence (O95665 whole entry): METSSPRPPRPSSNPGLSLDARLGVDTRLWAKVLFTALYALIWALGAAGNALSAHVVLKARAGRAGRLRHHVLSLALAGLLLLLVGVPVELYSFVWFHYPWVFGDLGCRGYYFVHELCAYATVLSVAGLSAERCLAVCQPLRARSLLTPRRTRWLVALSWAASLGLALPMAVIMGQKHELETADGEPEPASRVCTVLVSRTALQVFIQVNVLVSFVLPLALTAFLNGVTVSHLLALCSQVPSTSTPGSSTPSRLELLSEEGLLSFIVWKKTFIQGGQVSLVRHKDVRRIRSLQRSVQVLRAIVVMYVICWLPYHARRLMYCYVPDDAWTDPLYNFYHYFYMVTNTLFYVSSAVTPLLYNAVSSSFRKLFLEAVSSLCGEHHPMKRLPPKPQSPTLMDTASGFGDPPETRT
Method: (§1) All media and additives are from Wisent (St-Bruno, QC). […] After 1 h of incubation at room temperature, the binding reaction mixture was transferred in polyethylenimine-coated 96-well-filter plates (Millipore, Billerica, MA). Reaction was terminated by filtration, and plates were washed three times with 200 μl of ice-cold binding buffer. […] Data were plotted using GraphPad Prism 8 using the One-site—Fit log (IC50) and represent the mean ± SEM of at least three separate experiments performed in triplicate.

[2] = Plasma stability assay (UPLC/MS); format: in vitro ADME; conditions: 37°C; for half-life at 0.156 mM: rat; for Plasma stability (Half-life): rat plasma, 0.156 mM
Method: Rat plasma was obtained from blood by keeping the translucent phase after centrifugation at 15,000 g over 5 min. Plasma stability assay was carried out by incubating each compound at different incubation times in rat plasma at a final concentration of 0.156 mM. […] Then, 70 μl of a solution containing 10% trichloroacetic acid (TCA) and 0.5% nicotinamine, an internal standard, was added to stop the degradation by proteases. After centrifugation at 15,000 g for 30 min, supernatant was filtered through 0.22-μm filter and analyzed by UPLC/MS (Water H Class Acquity UPLC, mounted with Acquity UPLC BEH C18 column, 1.7 μm, 2.1 × 50 mm and paired to a SQ Detector 2). Compounds 1, 2, and 5 were analyzed using the mass or UV spectrum. Quantification was done by determining the area under the curve (AUC) ratio of each compound over AUC of nicotinamine for each incubation time. Data were plotted into GraphPad Prism 8 and the half-life of each compound was calculated using one-phase decay fit and represented the mean ± SEM of minimum three separate experiments.

[3] = tested on: Sprague-Dawley rats; experiment: Body temperature measurement after intrathecal injection; format: in vivo; conditions: rat; for effect on body temperature / temperature drop: 30 μg/kg i.t.; for effect on body temperature: compared to the saline-treated group; for Hypothermia ΔTemp: 30 μg/kg, i.t., change in body temperature from baseline at 60 min; for temperature drop: for up to 60 min
Source text: The experimental procedures in this study were approved by the Animal Care Committee of the Université de Sherbrooke (protocol n°035-18B) and were in accordance with policies and directives of the Canadian Council on Animal Care. Adult male Sprague-Dawley rats, weighing 175–225 g (Charles River laboratories, St-Constant, Québec, Canada), were maintained on a 12-h light/dark cycle with free access to food and water and were housed two per cage on Aspen shavings in a quiet room.
Rats were lightly anesthetized with isoflurane/oxygen (Baxter corporation, Mississauga, ON, Canada; 2 L/min) flow and 25 μl of each compound were injected intrathecally with a 27-G 1/2 needle (BD PrecisionGlide, USA) into the subarachnoid space between vertebrae L5 and L6. Analogs 1–14 were diluted in physiological saline at 5 mg/ml, whereas compounds 15 and 16 were diluted in DMSO. For body temperature measurement, the injected solution of these both compounds contained 6% DMSO at final concentration (30 μg/kg).
Three consecutive days prior to testing, animals were individually acclimatized to manipulations and to a thermistor probe 5 min per day. The day of the test, experiments were always performed in a quiet room and between 8:00 and 12:00 PM. to reduce any variation related to the circadian rhythm. Body temperature was measured using a thermistor probe inserted into the rectum of adult Sprague-Dawley rats. Temperatures were recorded immediately before (baseline) and each 10 min for up to 60 min following intrathecal administration of saline, vehicle (6% DMSO) or NT analogs at 30 μg/kg. Changes in body temperature (Δ body temp) from baseline were determined for each animal. Data are expressed as mean ± SEM of 5 to 20 animals per condition.
Data are expressed as mean ± standard errors of the mean (SEM). All graphs and statistical analysis were performed using GraphPad Prism 8 (GraphPad software, La Jolla, CA, USA). A two-way ANOVA followed by Bonferroni's multiple comparisons test was used to determine significant differences between drug- and vehicle-treated rats at different timepoints post-injection.

[4] = biological target: T2, hNTS1 (Homo sapiens, UniProt P30989); experiment: Competitive radioligand binding assay, 125I-[Tyr3]-NT displacement, CHO-K1 cell membranes; conditions: for fold decrease in NTS1 binding affinity: compared to NT(8-13)
T2 sequence (P30989 whole entry): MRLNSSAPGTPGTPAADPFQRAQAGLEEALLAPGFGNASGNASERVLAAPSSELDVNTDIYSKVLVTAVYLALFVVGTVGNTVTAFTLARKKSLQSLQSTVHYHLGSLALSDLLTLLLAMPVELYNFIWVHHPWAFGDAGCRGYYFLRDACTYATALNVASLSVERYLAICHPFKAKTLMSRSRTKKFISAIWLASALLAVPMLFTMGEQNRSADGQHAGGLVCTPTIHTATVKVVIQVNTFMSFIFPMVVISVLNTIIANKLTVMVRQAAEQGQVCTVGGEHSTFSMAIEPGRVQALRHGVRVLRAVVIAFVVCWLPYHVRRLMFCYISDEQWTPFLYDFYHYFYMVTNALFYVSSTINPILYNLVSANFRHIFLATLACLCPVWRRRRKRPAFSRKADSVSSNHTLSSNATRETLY
Method: as §1

[5] = biological target: T1, hNTS2; conditions: Ki values taken from the literature (Figure 1 legend) ref Fanelli et al., 2015; Eiselt et al., 2019; read-out: Binding, Ki hNTS2; cited from earlier work
[6] = biological target: T2, hNTS1; conditions: Ki values taken from the literature (Figure 1 legend) ref Fanelli et al., 2015; Eiselt et al., 2019; read-out: Binding, Ki hNTS1; cited from earlier work
[7] = mean ± SEM, at least three experiments, Cheng-Prusoff from IC50, read-out: Binding, Ki hNTS2

Compound | Ki [1] [nM] | effect on body temperature [3] | Hypothermia ΔTemp [3] [°C] | Ki [4] [nM] | NTS1/NTS2 selectivity [1] | half-life at 0.156 mM ([2]; plasma, incubation up to 24 h) [h] | other results
CC[C@H](C)[C@H](NC(=O)[C@H](Cc1ccc(O)cc1)NC(=O)[C@@H]1CCCN1C(=O)[C@H](CCCCN)NC(=O)[C@@H](N)CCCCN)C(=O)N[C@@H](CC(C)C)C(=O)O [Compound 1, H-Lys-Lys-Pro-Tyr-Ile-Leu-OH] | 1.1 ± 0.2 | not effective in reducing the body temperature; also recorded: not effective to induce drop in body temperature | 0.27 ±0.2 |  |  |  | half-life at 0.156 mM ([2]; short incubation times): 0.0267 ± 0.005 h
CC[C@H](C)[C@H](NC(=O)[C@H](Cc1ccc(O)cc1)NC(=O)[C@@H]1CCCN1C(=O)[C@H](CCCCN)NC[C@@H](N)CCCCN)C(=O)N[C@@H](CC(C)C)C(=O)O [Compound 2, H-LysΨ[CH2NH]Lys-Pro-Tyr-Ile-Leu-OH] (H-[X1]PYIL-OH) |  |  |  | 2 ± 0.8 | 6 |  | Ki [1, 7]: 0.31 ± 0.08 nM; Plasma stability (Half-life) ([2]; short incubation times): 0.14 ± 0.0333 h; half-life at 0.156 mM ([2]; plasma, short incubation times): < 0.167 h
CC[C@H](C)[C@H](NC(=O)[C@H](Cc1ccc(O)cc1)NC(=O)[C@@H]1CCCN1C(=O)[C@H](CCCCN)NC[C@@H](N)CCCCN)C(=O)N[C@@H](C[Si](C)(C)C)C(=O)O [Compound 4, H-Lysψ[CH2NH]Lys-Pro-Tyr-Ile-TMSAla-OH] (H-[X1]PYI[Ala(SiMe3)]-OH) | 0.55 ± 0.1 | long-lasting hypothermia | −2.0 ± 0.10 | 2.5 ± 0.2 | 4.5 | 2 ± 0.2 | fold decrease (loss) of affinity at NTS1 ([4]; compared to 3): 140 fold; temperature drop [3]: more than 2 °C
CC[C@H](C)[C@H](NC(=O)[C@H](Cc1ccc(O)cc1)NC(=O)C1C[Si](C)(C)CN1C(=O)[C@H](CCCCN)NC(=O)[C@@H](N)CCCCN)C(=O)N[C@@H](CC(C)C)C(=O)O (stereo partly drawn) [Compound 5, H-Lys-Lys-Sip-Tyr-Ile-Leu-OH] (H-KK[X2]YIL-OH) |  | not effective in reducing the body temperature; also recorded: not effective to induce drop in body temperature | −0.07 ± 0.2 |  |  |  | 
CC[C@H](C)[C@H](NC(=O)[C@H](Cc1ccc(O)cc1)NC(=O)C1C[Si](C)(C)CN1C(=O)[C@H](CCCCN)NC[C@@H](N)CCCCN)C(=O)N[C@@H](CC(C)C)C(=O)O (stereo partly drawn) [Compound 6, H-Lysψ[CH2NH]Lys-Sip-Tyr-Ile-Leu-OH] | 130 ± 30 | slight decrease in core body temperature; also recorded: hypothermic response | −2.2 ± 0.3 | 300 ± 50 | 2.3 | 22 ± 2 | fold decrease in NTS1 binding affinity [4]: 200 fold; fold decrease in NTS2 binding affinity [1]: ~50 fold
CC[C@H](C)[C@H](NC(=O)[C@H](Cc1ccc(O)cc1)NC(=O)C1C[Si](C)(C)CN1C(=O)[C@H](CCCCN)NC(=O)[C@@H](N)CCCCN)C(=O)N[C@@H](C[Si](C)(C)C)C(=O)O (stereo partly drawn) [Compound 7, H-Lys-Lys-Sip-Tyr-Ile-TMSAla-OH] (H-KK[X2]YI[Ala(SiMe3)]-OH) | 16 ± 4 | not effective in reducing the body temperature; also recorded: not effective to induce drop in body temperature | −0.30 ± 0.6 | 55 ± 5 | 3.4 |  | fold decrease in NTS1 binding affinity [4]: 35 fold; fold decrease in NTS2 binding affinity [1]: 6 fold
CC[C@H](C)[C@H](NC(=O)[C@H](Cc1ccc(O)cc1)NC(=O)C1C[Si](C)(C)CN1C(=O)[C@H](CCCCN)NC[C@@H](N)CCCCN)C(=O)N[C@@H](C[Si](C)(C)C)C(=O)O (stereo partly drawn) [Compound 8, H-LysΨ[CH2NH]Lys-Sip-Tyr-Ile-TMSAla-OH] |  |  |  |  |  | > 20 | 
CC[C@H](C)[C@H](NC(=O)[C@H](CCCCN)NC(=O)[C@@H]1CCCN1C(=O)[C@H](CCCCN)NC[C@@H](N)CCCCN)C(=O)N[C@@H](CC(C)C)C(=O)O [Compound 10, H-LysΨ[CH2NH]Lys-Pro-Lys-Ile-Leu-OH] (H-[X1]PKIL-OH) |  |  |  |  |  | 5 ± 0.2 | 
CC[C@H](C)[C@H](NC(=O)[C@H](CCCCN)NC(=O)[C@@H]1CCCN1C(=O)[C@H](CCCCN)NC(=O)[C@@H](N)CCCCN)C(=O)N[C@@H](C[Si](C)(C)C)C(=O)O [Compound 11, H-Lys-Lys-Pro-Lys-Ile-TMSAla-OH] (H-KKPKI[Ala(SiMe3)]-OH) | 76 ± 20 | did not induce hypothermia; also recorded: did not cause drop in body temperature | 0.04 ± 0.2 | 710 ± 100 | 9.3 |  | fold increase in affinity toward NTS1 ([4]; compared to 9): 10 fold; fold increase in affinity toward NTS2 ([1]; compared to 9): 4 fold
CC[C@H](C)[C@H](NC(=O)[C@@H](Cc1c[nH]c2ccccc12)NC(=O)[C@@H]1CCCN1C(=O)[C@H](CCCCN)NC(=O)[C@@H](N)CCCCN)C(=O)N[C@@H](C[Si](C)(C)C)C(=O)O [Compound 13, H-Lys-Lys-Pro-D-Trp-Ile-TMSAla-OH] (H-KKP[dW]I[Ala(SiMe3)]-OH) | 8.5 ± 2 |  |  |  | 423 |  | selectivity toward NTS2 ([1]; NTS2 over NTS1, text): > 420 fold; Plasma stability (Half-life) ([2]; short incubation times): 0.167 ± 0.033 h; half-life at 0.156 mM ([2]; plasma, short incubation times): < 0.167 h
CC[C@H](C)[C@H](NC(=O)[C@@H](Cc1c[nH]c2ccccc12)NC(=O)[C@@H]1CCCN1C(=O)[C@H](CCCCN)NC[C@@H](N)CCCCN)C(=O)N[C@@H](C[Si](C)(C)C)C(=O)O [Compound 14, H-Lysψ[CH2NH]Lys-Pro-D-Trp-Ile-TMSAla-OH] (H-[X1]P[dW]I[Ala(SiMe3)]-OH) | 3.5 ± 0.6 | long-lasting hypothermia | −1.8 ± 0.2 | 55 ± 3 | 16 | > 20 | fold increase in binding to NTS1 ([4]; compared to 13 (addition of reduced amine bond)): 65 fold; temperature drop [3]: more than 2 °C
Cc1cc(O)cc(C)c1C[C@H](NC(=O)[C@@H]1CCCN1C(=O)[C@H](CCCCN)NC(=O)[C@@H](N)CCCCN)C(=O)N[C@H](C(=O)N[C@@H](CC(C)C)C(=O)O)C(C)(C)C [Compound 15, H-Lys-Lys-Pro-Dmt-Tle-Leu-OH] (H-KKP[Dmt][Tle]L-OH) |  | not effective in reducing the body temperature; also recorded: not effective to induce drop in body temperature | 0.14 ± 0.2 |  | 24 |  | Ki [5]: 2.4 ± 1 nM; Ki [6]: 57 ± 6 nM
CC[C@H](C)[C@H](NC(=O)[C@H](Cc1ccc(O)cc1)NC(=O)[C@@H]1CCCN1C(=O)[C@H](CCCNC(=N)N)NC(=O)[C@@H](N)CCCNC(=N)N)C(=O)N[C@@H](CC(C)C)C(=O)O [NT(8-13), H-Arg-Arg-Pro-Tyr-Ile-Leu-OH, reference compound] |  |  |  |  |  |  | half-life at 0.156 mM ([2]; short incubation times): 0.0167 ± 0.00167 h
H-KKPKIL-OH [Compound 9, H-Lys-Lys-Pro-Lys-Ile-Leu-OH] |  | did not induce hypothermia; also recorded: did not cause drop in body temperature | 0.32 ± 0.2 |  | 25 |  | fold decrease in NTS1 binding affinity [4]: more than 5,000 fold; fold decrease in NTS2 binding affinity [1]: > 110 fold; Ki [1, 7]: 310 ± 100 nM
